Test results as given in patent US10357484B2, “Heterocyclic compound” (Takeda Pharmaceutical Company Limited, priority 2015, dated 2019).

What was measured:
Assay type in all cases: biochemical
HDAC9 enzyme = target: T1, HDAC9 enzyme (Homo sapiens, UniProt Q9UKV0); experiment: HDAC9 enzyme inhibitory assay (HDAC-Glo class IIa); settings: 1 μM test compound; wells without enzyme = 100% inhibition; read-out: HDAC9 inhibitory rate (%) (1 μM)
T1 construct: transducing full length HDAC9 gene into Sf-9 insect cells; made in house; host or cells: Sf-9 insect cells
T1 sequence (Q9UKV0 whole entry, species assumed): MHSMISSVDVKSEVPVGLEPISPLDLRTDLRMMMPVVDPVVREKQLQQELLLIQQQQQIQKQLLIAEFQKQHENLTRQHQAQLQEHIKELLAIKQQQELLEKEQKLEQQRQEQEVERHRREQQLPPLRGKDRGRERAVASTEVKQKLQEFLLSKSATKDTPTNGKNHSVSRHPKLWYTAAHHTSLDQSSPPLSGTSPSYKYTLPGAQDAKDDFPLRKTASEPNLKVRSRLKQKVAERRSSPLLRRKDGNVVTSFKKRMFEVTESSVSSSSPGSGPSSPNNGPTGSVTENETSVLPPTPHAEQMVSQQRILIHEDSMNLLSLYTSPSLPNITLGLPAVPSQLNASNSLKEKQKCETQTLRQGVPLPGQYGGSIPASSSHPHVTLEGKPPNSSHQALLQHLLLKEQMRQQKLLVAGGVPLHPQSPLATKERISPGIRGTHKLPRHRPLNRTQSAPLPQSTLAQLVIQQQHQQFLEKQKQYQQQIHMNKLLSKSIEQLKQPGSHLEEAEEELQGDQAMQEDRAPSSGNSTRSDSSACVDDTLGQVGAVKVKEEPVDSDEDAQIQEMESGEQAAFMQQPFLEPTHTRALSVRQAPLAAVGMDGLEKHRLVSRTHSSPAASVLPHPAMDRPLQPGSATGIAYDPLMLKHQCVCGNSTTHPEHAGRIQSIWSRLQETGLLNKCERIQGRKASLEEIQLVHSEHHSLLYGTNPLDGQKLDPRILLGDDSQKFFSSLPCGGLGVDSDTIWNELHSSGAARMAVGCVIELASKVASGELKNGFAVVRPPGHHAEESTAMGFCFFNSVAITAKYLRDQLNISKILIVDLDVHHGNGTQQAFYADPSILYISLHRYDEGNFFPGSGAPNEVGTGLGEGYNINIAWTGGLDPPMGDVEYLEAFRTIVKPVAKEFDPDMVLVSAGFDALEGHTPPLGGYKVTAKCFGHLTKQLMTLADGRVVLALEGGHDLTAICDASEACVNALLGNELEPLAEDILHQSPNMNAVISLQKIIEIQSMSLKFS
Description: HDAC9 Enzyme Inhibitory Assay
Enzyme was prepared by transducing full length HDAC9 gene into Sf-9 insect cells and purifying by Ni-NTA affinity column, and HDAC9 enzyme inhibitory activity was evaluated. Enzymes were used after preserved at −70° C. HDAC9 enzyme inhibitory activity of the test compound was measured using HDAC-Glo class IIa (Promega) according to the following experimental method. The test compound diluted with assay buffer (24 mM Tris-HCl (pH 7.5), 1 mM MgCl2, 0.35 mM KCl, 135 mM NaCl, 0.6 mM Glutathione, 0.01% Tween-20) was added to a 384-well plate by each 2 μL. Then, HDAC9 enzyme solution diluted with assay buffer was added thereto by each 2 μL, and the plate was incubated at room temperature for 60 min. After incubated, HDAC substrate-Developer solution prepared according to Promega protocol was added to the 384-well plate by each 4 μL, and the enzyme reaction was started. After reacting at room temperature for 20 min, luminescence level was measured using plate reader Envision (PerkinElmer). The inhibitory activity of each compound was calculated as a relative activity value when luminescence level in wells without enzyme is considered as 100% inhibition.

HDAC6 enzyme = target: T2, HDAC6 enzyme (Homo sapiens, UniProt Q9UBN7); experiment: HDAC6 enzyme inhibitory assay (HDAC-Glo I/II Assay kit); settings: 1 μM test compound; wells without enzyme = 100% inhibition; read-out: HDAC6 inhibitory rate (%) (1 μM)
T2 construct: transducing full length HDAC1 and HDAC6 genes into Sf-9 insect cells; GST; purchased SignalChem; host or cells: Sf-9 insect cells
T2 sequence (Q9UBN7 1-1215): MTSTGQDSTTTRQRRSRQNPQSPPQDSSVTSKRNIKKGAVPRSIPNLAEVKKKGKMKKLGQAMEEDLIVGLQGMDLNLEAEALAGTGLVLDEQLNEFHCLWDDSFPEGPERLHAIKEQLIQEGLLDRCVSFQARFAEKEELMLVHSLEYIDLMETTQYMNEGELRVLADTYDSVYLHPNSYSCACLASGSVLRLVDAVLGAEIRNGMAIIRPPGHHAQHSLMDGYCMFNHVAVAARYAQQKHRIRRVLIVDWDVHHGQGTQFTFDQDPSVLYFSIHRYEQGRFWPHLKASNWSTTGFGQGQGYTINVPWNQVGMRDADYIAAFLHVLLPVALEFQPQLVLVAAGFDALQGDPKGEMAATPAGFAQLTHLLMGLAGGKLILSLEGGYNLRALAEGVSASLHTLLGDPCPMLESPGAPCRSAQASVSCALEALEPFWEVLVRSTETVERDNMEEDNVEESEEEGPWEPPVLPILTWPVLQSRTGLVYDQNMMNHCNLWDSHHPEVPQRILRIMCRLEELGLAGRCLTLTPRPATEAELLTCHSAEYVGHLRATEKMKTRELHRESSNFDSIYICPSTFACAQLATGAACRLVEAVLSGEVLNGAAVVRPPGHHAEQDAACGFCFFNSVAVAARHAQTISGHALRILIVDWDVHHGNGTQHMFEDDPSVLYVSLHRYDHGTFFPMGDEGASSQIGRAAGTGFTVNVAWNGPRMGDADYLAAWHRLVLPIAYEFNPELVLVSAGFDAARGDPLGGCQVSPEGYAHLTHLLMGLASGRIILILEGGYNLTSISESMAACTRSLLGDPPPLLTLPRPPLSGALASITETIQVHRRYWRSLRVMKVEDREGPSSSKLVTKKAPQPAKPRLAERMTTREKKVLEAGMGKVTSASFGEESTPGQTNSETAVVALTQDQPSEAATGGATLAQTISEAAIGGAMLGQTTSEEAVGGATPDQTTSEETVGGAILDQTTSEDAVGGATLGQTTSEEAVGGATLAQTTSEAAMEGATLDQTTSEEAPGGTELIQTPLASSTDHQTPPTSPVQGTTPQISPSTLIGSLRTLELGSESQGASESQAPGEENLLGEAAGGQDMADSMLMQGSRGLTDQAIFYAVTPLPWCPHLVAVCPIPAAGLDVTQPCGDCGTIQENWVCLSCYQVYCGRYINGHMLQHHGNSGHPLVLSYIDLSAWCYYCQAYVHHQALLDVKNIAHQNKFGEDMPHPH
Description: (§1) HDAC1/6 Enzyme Inhibitory Assay
(§2) HDAC1 enzyme and HDAC6 enzyme each prepared by transducing full length HDAC1 and HDAC6 genes into Sf-9 insect cells and purifying by GST affinity column were purchased from SignalChem. Using these enzymes, HDAC1 and/or HDAC6 enzyme inhibitory activities of the compound of the present invention were evaluated. Enzymes were used after preserved at −70° C. HDAC1 or HDAC6 enzyme inhibitory activity of the compound of the present invention was measured using HDAC-Glo™ I/II Assay kit (Promega) according to the following experimental method. The test compound diluted with assay buffer (24 mM Tris-HCl (pH 7.5), 1 mM MgCl2, 0.35 mM KCl, 135 mM NaCl, 0.6 mM Glutathione, 0.01% Tween-20) was added to a 384-well plate by each 2 μL. Then, HDAC1 or HDAC6 enzyme solution diluted with assay buffer was added thereto by each 4 μL, and the plate was incubated at room temperature for 60 min. After incubated, HDAC substrate-Developer solution prepared according to Promega protocol attached to the assay kit was added to the 384-well plate by each 2 μL, and the enzyme reaction was started. After reacting at room temperature for 20 min, luminescence level was measured using plate reader Envision (PerkinElmer). The inhibitory activity of each compound was calculated as a relative activity value when luminescence level in wells without enzyme is considered as 100% inhibition.

HDAC1 enzyme = target: T3, HDAC1 enzyme (Homo sapiens, UniProt Q13547); experiment: HDAC1 enzyme inhibitory assay (HDAC-Glo I/II Assay kit); settings: 1 μM test compound; wells without enzyme = 100% inhibition; read-out: HDAC1 inhibitory rate (%) (1 μM)
T3 construct: transducing full length HDAC1 and HDAC6 genes into Sf-9 insect cells; GST; purchased SignalChem; host or cells: Sf-9 insect cells
T3 sequence (Q13547 whole entry): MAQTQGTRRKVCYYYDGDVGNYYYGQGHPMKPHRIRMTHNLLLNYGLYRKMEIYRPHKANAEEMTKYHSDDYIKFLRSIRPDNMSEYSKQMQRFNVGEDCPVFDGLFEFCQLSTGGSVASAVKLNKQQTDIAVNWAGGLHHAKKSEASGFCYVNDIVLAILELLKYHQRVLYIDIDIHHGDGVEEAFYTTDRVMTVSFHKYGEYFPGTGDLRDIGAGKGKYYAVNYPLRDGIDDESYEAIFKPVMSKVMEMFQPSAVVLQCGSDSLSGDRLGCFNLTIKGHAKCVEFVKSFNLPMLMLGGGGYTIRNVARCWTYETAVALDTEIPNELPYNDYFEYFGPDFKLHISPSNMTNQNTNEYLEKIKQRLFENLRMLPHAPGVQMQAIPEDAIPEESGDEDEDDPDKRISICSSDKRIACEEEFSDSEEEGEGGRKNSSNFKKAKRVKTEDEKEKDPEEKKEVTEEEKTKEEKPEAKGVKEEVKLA
Description: as §1, §2

| inhibition at 1 µM (HDAC9 enzyme) [%] | inhibition at 1 µM (HDAC6 enzyme) [%] | inhibition at 1 µM (HDAC1 enzyme) [%] | SMILES |
| --- | --- | --- | --- |
| 93 | 97 | 52 | C[C@@H](c1ccccc1)N1Cc2ncc(-c3noc(C(F)(F)F)n3)cc2C1=O [Example 40, 6-((1S)-1-phenylethyl)-3-(5-(trifluoromethyl)-1,2,4-oxadiazol-3-yl)-6,7-dihydro-5H-pyrrolo[3,4-b]pyridin-5-one] |
| 85 | 97 | 23 | Cc1cc(CN2Cc3ccc(-c4noc(C(F)(F)F)n4)cc3C2=O)nn1C [Example 38, 2-((1,5-dimethyl-1H-pyrazol-3-yl)methyl)-6-(5-(trifluoromethyl)-1,2,4-oxadiazol-3-yl)isoindolin-1-one] |
| 79 | 97 | 16 | CC(c1ccccn1)N1Cc2ccc(-c3noc(C(F)(F)F)n3)cc2C1=O (stereo not drawn) [Example 34] |
| 77 | 98 | 19 | COc1ncccc1CN1Cc2ccc(-c3noc(C(F)(F)F)n3)cc2C1=O [Example 33, 2-((2-methoxypyridin-3-yl)methyl)-6-(5-(trifluoromethyl)-1,2,4-oxadiazol-3-yl)isoindolin-1-one] |
| 81 | 98 | 15 | O=C1c2cc(-c3noc(C(F)(F)F)n3)ccc2CN1Cc1nccs1 [Example 36, 2-(1,3-thiazol-2-ylmethyl)-6-(5-(trifluoromethyl)-1,2,4-oxadiazol-3-yl)isoindolin-1-one] |
| 77 | 99 | 13 | O=C1c2cc(-c3noc(C(F)(F)F)n3)ccc2CN1Cc1ccccn1 [Example 32] |

Continued, compound first:

| SMILES | inhibition at 1 µM (HDAC9 enzyme) [%] | inhibition at 1 µM (HDAC6 enzyme) [%] | inhibition at 1 µM (HDAC1 enzyme) [%] |
| --- | --- | --- | --- |
| COc1cccc(CN2Cc3ccc(-c4noc(C(F)(F)F)n4)cc3C2=O)c1 [Example 9, 2-(3-methoxybenzyl)-6-(5-(trifluoromethyl)-1,2,4-oxadiazol-3-yl)isoindolin-1-one] | 81 | 98 | 31 |
| O=C1c2cc(-c3noc(C(F)(F)F)n3)ccc2CN1Cc1ccccc1Cl [Example 25, 2-(2-chlorobenzyl)-6-(5-(trifluoromethyl)-1,2,4-oxadiazol-3-yl)isoindolin-1-one] | 64 | 94 | 11 |
| C[C@@H](c1ccccc1F)N1Cc2ccc(-c3noc(C(F)(F)F)n3)cc2C1=O [Example 15, 2-((1S)-1-(2-fluorophenyl)ethyl)-6-(5-(trifluoromethy)-1,2,4-oxadiazol-3-yl)isoindolin-1-one] | 79 | 95 | 15 |
| COc1cccc([C@H](C)N2Cc3ccc(-c4noc(C(F)(F)F)n4)cc3C2=O)c1 [Example 19, 2-((1S)-1-(3-methoxyphenyl)ethyl)-6-(5-(trifluoromethyl)-1,2,4-oxadiazol-3-yl)isoindolin-1-one] | 87 | 99 | 29 |
| O=C1c2cc(-c3noc(C(F)(F)F)n3)cnc2CN1Cc1ccccc1 [Example 1, 6-benzyl-3-(5-(trifluoromethyl)-1,2,4-oxadiazol-3-yl)-6,7-dihydro-5H-pyrrolo[3,4-b]pyridin-5-one] | 94 | 101 | 61 |
| COc1ccc([C@H](C)N2Cc3ccc(-c4noc(C(F)(F)F)n4)cc3C2=O)cc1 [Example 18, 2-((1S)-1-(4-methoxyphenyl)ethyl)-6-(5-(trifluoromethyl)-1,2,4-oxadiazol-3-yl)isoindolin-1-one] | 89 | 91 | 27 |
| O=C1c2cc(-c3noc(C(F)(F)F)n3)ccc2CN1Cc1ccccc1OC(F)(F)F [Example 26, 2-(2-(trifluoromethoxy)benzyl)-6-(5-(trifluoromethyl)-1,2,4-oxadiazol-3-yl)isoindolin-1-one] | 58 | 95 | 8 |
| C[C@@H](c1ccc(Cl)cc1)N1Cc2ccc(-c3noc(C(F)(F)F)n3)cc2C1=O [Example 14, 2-((1S)-1-(4-chlorophenyl)ethyl)-6-(5-(trifluoromethyl)-1,2,4-oxadiazol-3-yl)isoindolin-1-one] | 76 | 88 | 9 |
| C[C@@H](c1cccc2ccccc12)N1Cc2ccc(-c3noc(C(F)(F)F)n3)cc2C1=O [Example 22, 2-((1S)-1-(1-naphthyl)ethyl)-6-(5-(trifluoromethyl)-1,2,4-oxadiazol-3-yl)isoindolin-1-one] | 82 | 92 | 3 |
| O=C1c2cc(-c3noc(C(F)(F)F)n3)ccc2CN1Cc1ccccc1F [Example 24, 2-(2-fluorobenzyl)-6-(5-(trifluoromethyl)-1,2,4-oxadiazol-3-yl)isoindolin-1-one] | 75 | 97 | 17 |
| C[C@@H](c1ccc(F)cc1OC(F)F)N1Cc2ccc(-c3noc(C(F)(F)F)n3)cc2C1=O [Example 21, 2-((1S)-1-(2-(difluoromethoxy)-4-fluorophenyl)ethyl)-6-(5-(trifluoromethyl)-1,2,4-oxadiazol-3 yl)isoindolin-1-one] | 73 | 96 | 18 |
| C[C@@H](c1ccc(F)cc1)N1Cc2ccc(-c3noc(C(F)(F)F)n3)cc2C1=O [Example 13, 2-((1S)-1-(4-fluorophenyl)ethyl)-6-(5-(trifluoromethyl)-1,2,4-oxadiazol-3-yl)isoindolin-1-one] | 79 | 90 | 14 |
| C[C@@H](c1ccc(F)cc1F)N1Cc2ccc(-c3noc(C(F)(F)F)n3)cc2C1=O [Example 17, 2-((1S)-1-(2,4-difluorophenyl)ethyl)-6-(5-(trifluoromethyl)-1,2,4-oxadiazol-3-yl)isoindolin-1-one] | 74 | 95 | 12 |
